Measurements taken from patent publication US20080090849A1, “NOVEL PURINE DERIVATIVES, PREPARATION METHOD AND USE AS MEDICINES” (AVENTIS PHARMA S.A., priority 2000, published 2008).
In brackets after ≈: the same amount, converted by molar mass. Where a name gives a salt, the structure may show the parent alone. Read-outs that look alike come from different tables or passages of the source.

Key:
[1] = target: CaCiv1 (Candida albicans, UniProt A0A1D8PH53); assay: Test of inhibition of the activity of CIV-CDK (CIV1); type: biochemical
Description: (Details of the Excipient: Lactose, Talc, Starch, Magnesium Stearate.) Pharmacological Part: 1) Test of Inhibition of the Activity of CIV-CDK (CIV1) a) PREPARATION of the Reagents […]
967 μl Buffer [50 mM Tris-HCl−0.1 M NaCl−pH 7.5]
−0.1% BSA+30 μl Cdk2 (1 mg/ml)
(2)-3× Inhibitor Cocktail
Prepare a 3× range of inhibitor in 3% of DMSO-Buffer
[50 mM Tris-HCl−0.1 M NaCl−pH 7.5]−0.1% BSA
ATP−pH 7.5+1 tablet of protease inhibitors (Complete EDTA Free™) per 5 ml of Buffer b) Carrying Out of the Test
1)—mix 30 μl of the 3× enzyme cocktail (1) with 30 μl of the 3× inhibitor cocktail (2) 2)—add 30 μl of the 3×ATP cocktail (3) (start of the reaction)
3)—incubate for 30 min at room temperature (20 to 25° C.)
4)—stop the reaction by adding 250 μl of Buffer [50 mM Tris-HCl−0.1 M NaCl−pH 7.5]−0.1% BSA−25 mM EDTA 5)—distribute 100 μl into a plate coated with antibodies directed against the reaction substrate 6)—incubate for 60 min at room temperature, stirring gently and then wash 3 times with 300 μl Buffer [50 mM Tris-HCl−0.1 M NaCl−pH 7.5]−0.05% Tween20
9)—Place the plate to dry for 30 min at 37° C.
10)—Place for counting in a scintillation counter c) Results Obtained, Expressed as IC50 Expressed in Micromolar

[2] = system: fungus; assay: Minimum inhibitory concentration (MIC), NCCLS M27-A broth dilution antifungal susceptibility test; type: cell-based; conditions: RPMI 1640 medium, 37° C., visual reading, inhibition of at least 80% of growth; test strain not named
Text: A constant number of cells of a given strain are exposed to increasing concentrations of an antifungal, under conditions taken from NCCLS (National Committee for Clinical Laboratory Standards, 1997 [reference method for broth dilution antifungal susceptibility testing of yeasts]. Approved Standard M27-A. NCCLS, Villanova, Pa.); the minimum concentration with which a visible reduction in the cloudiness from cell growth was observed (at least 80% relative to a control with no product) is the minimum inhibitory concentration (MIC) of the antifungal for the test strain.
Supplement the L-glutamine-free RPMI 1640 medium (liquid) with L-glutamine (0.3 g/l or 10.5 ml of a solution at 200 mM) and buffer with 34.54 g/l (0.165 M) of M morpholinepropanesulfonic acid (MOPS). Sterilize the medium by filtration. Distribute 100 μl of RPMI medium into each well of a 96-well microplate. Distribute the appropriate volume of the antifungal solution in the first column of the microplate and adjust with medium to 200 μl. Carry out a 2-fold serial dilution in order to establish a range of 11 concentrations in each lane of the microplate. The 12th well of each row will serve as a control for growth. Prepare the cellular suspension from a (liquid or agar) culture or from a frozen vial, dilute it in RPMI medium in order to obtain a cellular suspension at 5×10^3-2×10^4 cells/ml. Distribute 100 μl of the cellular suspension into the microplate. The MIC for all the Candida species was read after 24-48 h, for Cryptococcus and Aspergillus after 48-72 h of incubation at 37° C. in a normal atmosphere. The MIC is read by visual readings by determining the well which contains the lowest dose of antifungal which causes an inhibition of at least 80% of the growth of the fungus.

[3] = CaCiv1 with Cdk2, [33P]ATP, 30 min at room temperature, scintillation counting, read-out: IC50

CaCiv1, sequence (A0A1D8PH53 entry or part of it): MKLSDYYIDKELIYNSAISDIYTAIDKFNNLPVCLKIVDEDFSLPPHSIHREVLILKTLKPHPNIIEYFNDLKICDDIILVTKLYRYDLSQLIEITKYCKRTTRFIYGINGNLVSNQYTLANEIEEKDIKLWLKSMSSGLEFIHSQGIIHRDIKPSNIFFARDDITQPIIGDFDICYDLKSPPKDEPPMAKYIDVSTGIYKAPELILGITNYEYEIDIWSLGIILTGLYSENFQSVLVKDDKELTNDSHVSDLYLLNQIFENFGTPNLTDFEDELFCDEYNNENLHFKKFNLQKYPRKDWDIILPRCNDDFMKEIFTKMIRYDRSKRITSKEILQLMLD

IC50 [1, 3] | Structure (SMILES) | MIC [2] | IC50 [1]
4.3 µM | CCN(CC)CCOC(=O)c1ccc(Nc2nc(N[C@H]3CC[C@H](N)CC3)nc3[nH]cnc23)cc1 [Example 18, 2-(diethylamino)ethyl trans-4-[[2-[(4-aminocyclohexyl)amino]-9H-purin-6-yl]amino]benzoate] | – | –
2 µM | CCOC(=O)c1cccc(Nc2nc(N[C@H]3CC[C@H](N)CC3)nc3[nH]cnc23)c1 [Example 14, Ethyl trans-3-[[2-[(4-aminocyclohexyl)amino]-9H-purin-6-yl]amino]benzoate] | – | –
– | N[C@H]1CC[C@H](Nc2nc(Nc3ccc(Cl)cc3)c3nc[nH]c3n2)CC1 [Example 15, Trans-N2-(4-aminocyclohexyl)-N6-(4-chlorophenyl)-9H-purine-2,6-diamine] | 100 µg/mL (≈ 279 µM) | –
2.5 µM | N[C@H]1CC[C@H](Nc2nc(Nc3ccccc3)c3nc[nH]c3n2)CC1 [Example 11, Trans-N2-(4-aminocyclohexyl)-N6-[4-phenyl]-1H-purine-2,6-diamine dihydrochloride] | – | –
– | CCOC(=O)c1ccc(Nc2[nH]c(N[C@H]3CC[C@H](N)CC3)nc3ncnc2-3)cc1 [Example 1, Ethyl trans-4-[[2-[(4-aminocyclohexyl)amino]-1H-purin-6-yl]amino]benzoate dihydrochloride] | – | 0.5 µM
3.8 µM | N[C@H]1CC[C@H](Nc2nc(Nc3ccc(C(=O)Nc4ccccc4)cc3)c3nc[nH]c3n2)CC1 [Example 19, Trans-4-[[2-[(4-aminocyclohexyl)amino]-9H-purin-6-yl]amino]-N-phenylbenzamide] | – | –

Structure (SMILES) | IC50 [1, 3] | MIC [2] | IC50 [1]
CCCCOC(=O)c1ccc(Nc2nc(N[C@H]3CC[C@H](N)CC3)nc3[nH]cnc23)cc1 [Example 17, Butyl trans-4-[[2-[(4-aminocyclohexyl)amino]-9H-purin-6-yl]amino]benzoate] | 5.6 µM | 12.5 µg/mL (≈ 29.5 µM) | –
N[C@H]1CC[C@H](Nc2nc(Nc3ccc(Cl)c(Cl)c3)c3nc[nH]c3n2)CC1 [Example 16, trans-N2-(4-aminocyclohexyl)-N6-(3,4-dichlorophenyl)-9H-purine-2,6-diamine] | 2.9 µM | 25 µg/mL (≈ 63.7 µM) | –
